Results on 16 molecules are retold here after PMC8812735, “Discovery of triterpenoids as potent dual inhibitors of pancreatic lipase and human carboxylesterase 1” (Journal of Enzyme Inhibition and Medicinal Chemistry, 2022).

The IC50 is the concentration that inhibits the measured activity by half.

Common to all, as to format: biochemical
Assay [1] addresses T1, hCES2A (Homo sapiens, UniProt O00748).
T1 sequence (O00748 27-559): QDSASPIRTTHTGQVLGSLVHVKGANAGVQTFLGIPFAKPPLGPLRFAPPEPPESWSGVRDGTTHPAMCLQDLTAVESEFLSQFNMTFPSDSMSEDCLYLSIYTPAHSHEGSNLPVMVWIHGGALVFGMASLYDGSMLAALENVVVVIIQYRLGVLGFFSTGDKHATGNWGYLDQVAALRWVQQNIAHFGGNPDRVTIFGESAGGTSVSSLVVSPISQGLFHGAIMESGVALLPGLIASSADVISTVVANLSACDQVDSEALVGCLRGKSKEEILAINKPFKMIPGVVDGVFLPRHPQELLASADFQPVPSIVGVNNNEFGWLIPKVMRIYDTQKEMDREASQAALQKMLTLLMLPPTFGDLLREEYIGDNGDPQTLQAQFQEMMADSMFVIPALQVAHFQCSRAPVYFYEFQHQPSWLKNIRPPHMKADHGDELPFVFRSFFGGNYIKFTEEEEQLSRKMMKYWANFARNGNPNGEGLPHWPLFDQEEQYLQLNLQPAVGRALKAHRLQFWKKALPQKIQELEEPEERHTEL
The assay is described as follows: Inhibition of hCES2A-mediated FD hydrolysis. From the text: […] (FD) was used as the hCES2A specific probe substrate to assay the inhibitory effect of natural triterpenoids on hCES2A. The entire detailed operation process refers to the previously reported method, and finally the FD mixture was put into the multi-mode microplate reader for analysis and detection.

The target in assay [2] is T2, hCES1A (Homo sapiens, UniProt P23141).
T2 construct: tissue Bioreclamation IVT lot No. X008067; host or cells: pooled human liver microsomes from 50 donors
T2 sequence (P23141 18-567): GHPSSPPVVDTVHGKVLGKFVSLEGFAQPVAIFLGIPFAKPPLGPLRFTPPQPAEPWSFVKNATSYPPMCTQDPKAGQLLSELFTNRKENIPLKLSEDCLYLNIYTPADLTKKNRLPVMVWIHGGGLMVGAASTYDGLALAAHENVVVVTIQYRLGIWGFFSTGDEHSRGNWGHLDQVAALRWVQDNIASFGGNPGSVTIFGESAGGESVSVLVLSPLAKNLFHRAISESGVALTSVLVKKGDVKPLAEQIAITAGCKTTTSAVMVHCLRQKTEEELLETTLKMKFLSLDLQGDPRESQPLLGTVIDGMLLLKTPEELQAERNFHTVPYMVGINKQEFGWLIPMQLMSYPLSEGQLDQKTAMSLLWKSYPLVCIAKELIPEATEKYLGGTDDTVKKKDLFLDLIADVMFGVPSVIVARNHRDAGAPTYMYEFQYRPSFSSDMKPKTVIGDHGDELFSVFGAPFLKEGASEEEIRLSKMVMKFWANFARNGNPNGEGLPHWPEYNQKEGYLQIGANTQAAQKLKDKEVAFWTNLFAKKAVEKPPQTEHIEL
The assay is described as follows: Inhibition of hCES1A-mediated NLMe hydrolysis in human liver microsomes. How it is done:
N-Alkylated D-luciferin methyl ester (NLMe), a Specific probe for hCES1A[45], was used for assessing the inhibitory effects for triterpenoids, and BNPP was used as a positive inhibitor of hCES1A. […] Then NLMe (2 µL, 0.15 mM) was added to start the reaction. After shaking the reaction in 37 °C incubator for 10 min, 50 µL of reaction solution was removed and mixed with LDR (50 µL) to terminate the reaction. A multi-mode microplate reader was used to detect the luminescence signal of NL (the hydrolysed metabolite of NLMe). The luminescence product of NL was measured at 580 nm (gain: 140). The final volume ratio of DMSO was less than 1% (V/V).
(§1) Subsequently, various concentrations of substrates (selected according to Km) and different concentrations of inhibitors were used to determine the corresponding reaction rate, and the second slope graph of the Lineweaver–Burk diagram was used as a function of the inhibitor to calculate the corresponding inhibition constant (Ki) value. All kinetic data were fitted by the following kinetic equations (a–c), for competitive (a), non-competitive (b) and mixed inhibition (c): (a) V=(VmaxS)/[Km(1+I/Ki)+S] (b) V=(VmaxS)/[(Km+S)×(1+I/Ki)] (c) V=(VmaxS)/[(Km+S)×(1+I/αKi)] where V is the hydrolytic velocity of the reaction, Vmax is the maximum velocity. S and I are substrate (4-MUO, NLMe) and inhibitor (compound 39/41) concentrations, respectively. Ki is the inhibition constant of the tested inhibitor against the target PL and hCES1A; Km is the Michaelis constant (the substrate concentration at half of the Vmax).
All measurements were made in triplicate and the data obtained in the experiment were shown as mean ± SD. The IC50 and Ki values of the compounds with strong inhibitory effect were evaluated by nonlinear regression with graphpad prism 7.0 software (GraphPad Software, Inc., La Jolla, CA).
(In general: Liver microsomes are a subcellular fraction often used to study metabolism.)

Assay [3] has as its target T3, Pancreatic lipase (PL) (Sus scrofa, UniProt P00591).
T3 construct: purchased Sigma Aldrich type II, Lot.SLBN9099V
T3 sequence (P00591 1-450): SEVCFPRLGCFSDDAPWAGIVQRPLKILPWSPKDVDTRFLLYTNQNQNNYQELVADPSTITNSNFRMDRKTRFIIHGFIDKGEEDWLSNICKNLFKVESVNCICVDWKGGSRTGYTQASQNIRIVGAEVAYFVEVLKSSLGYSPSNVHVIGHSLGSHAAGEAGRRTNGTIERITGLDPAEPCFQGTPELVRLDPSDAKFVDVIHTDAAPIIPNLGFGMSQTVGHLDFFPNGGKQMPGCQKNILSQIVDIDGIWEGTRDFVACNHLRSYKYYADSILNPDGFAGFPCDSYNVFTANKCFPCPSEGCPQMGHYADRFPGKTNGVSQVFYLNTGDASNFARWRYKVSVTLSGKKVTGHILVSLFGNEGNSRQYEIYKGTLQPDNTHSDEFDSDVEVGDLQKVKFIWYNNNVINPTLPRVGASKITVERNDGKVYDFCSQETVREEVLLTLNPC
The assay is described as follows: Inhibition of PL-mediated 4-MUO hydrolysis. The following applies: 4-MUO substrate, mean ± SD (n = 3). How it is done:
In addition, the background fluorescence in the absence of an enzyme source (PL) (add the same amount of citrate-Na2HPO4 buffer) was measured. […] Then start the reaction by adding 2 µL of 4-MUO probe (3 µM, final concentration). The fluorescence signal of 4-MU (hydrolytic metabolite) was detected by multi-mode microplate reader (SpectraMax M4, Molecular Devices, Urstein, Austria) with continuous oscillation for 20 min and recorded and analysed at 60 s intervals. The excitation wavelength and emission wavelength of 4-MU were set at 340 nm and 460 nm, respectively, and the gain value was 500.
as §1
All measurements were made in triplicate and the data obtained in the experiment were shown as mean ± SD.

Where [4] appears, read: NLMe substrate, HLM, mean ± SD (n = 3), read-out: IC50 (µM) hCES1A.

Where two headings read alike, the source gives them in different places. Some results are limits rather than exact numbers.

Consider `CC1(C)CC[C@]2(C(=O)O)CC[C@]3(C)C(=CC[C@@H]4[C@@]5(C)CC[C@H](O)[C@@](C)(CO)[C@@H]5CC[C@]43C)[C@@H]2C1` [Compound 3, hederagenin], for which the IC50 in assay [1] (FD substrate, mean ± SD (n = 3), read-out: IC50 (µM) hCES2A) was 9.22 ± 1.43 µM; in assay [2] (setting [4]) it was 0.04 ± 0.004 µM; in assay [3], 13 ± 2.03 µM.

As to `C[C@H]1[C@H](C)CC[C@]2(C(=O)O)CC[C@]3(C)C(=CC[C@@H]4[C@@]5(C)C[C@@H](O)[C@H](O)[C@@](C)(CO)[C@@H]5CC[C@]43C)[C@H]12` [Compound 7, asiatic acid], the 50% inhibitory concentration (IC50) came to 65.1 ± 6.41 µM in assay [1], 0.17 ± 0.02 µM in assay [2] and 12.9 ± 1.87 µM in assay [3].

Regarding `CC1(C)CCC2(C(=O)O)CCC3(C)C(=CCC4C5(C)CCC(=O)C(C)(C)C5CCC43C)C2C1` (stereo not shown) [Compound 30], the figures for the half-maximal inhibitory concentration (IC50) in assay [2] (setting [4]) and in assay [3] were 0.047 ± 0.003 µM and 7.51 ± 1.08 µM, respectively.

Turning to `CC1(C)CCC2(CO)CCC3(C)C(=CCC4C5(C)CCC(O)C(C)(C)C5CCC43C)C2C1` (stereo not shown) [Compound 37], the half-inhibitory concentration (IC50) in assay [2] (setting [4]) is 4.11 ± 0.77 µM; in assay [3] it was 11.8 ± 1.6 µM.

Turning to `C=C(C)[C@@H]1CC[C@]2(CO)CC[C@]3(C)[C@H](CC[C@@H]4[C@@]5(C)CC[C@H](O)C(C)(C)[C@@H]5CC[C@]43C)[C@@H]12` [Compound 12, betulin], the 50% inhibitory concentration (IC50) in assay [2] is over 100 µM; in assay [3], 7.47 ± 1.68 µM.

`CCCC(=O)OC1CCC2(C)C(CCC3(C)C2CC=C2C4CC(C)(C)CCC4(C(=O)O)CCC23C)C1(C)C` (stereo not shown) [Compound 34]: the concentration for half-maximal inhibition (IC50) in assay [2] (setting [4]) is 0.24 ± 0.049 µM; in assay [3], over 100 µM.

As to `CC1(C)CC[C@]2(C(=O)O)CC[C@]3(C)C(=CC[C@@H]4[C@@]5(C)C[C@@H](O)[C@H](O)C(C)(C)[C@@H]5CC[C@]43C)[C@@H]2C1` [Compound 2, maslinic acid], the values for the IC50 in assay [2] and in assay [3] were 0.12 ± 0.01 µM and 16 ± 4.59 µM, respectively.

In the case of `CC1(C)CC[C@]2(C(=O)O)CC[C@]3(C)C(=CC[C@@H]4[C@@]5(C)CC[C@H](O)C(C)(C)[C@@H]5CC[C@]43C)[C@@H]2C1` [Compound 1, oleanolic acid], the values for the IC50 in assay [2] (setting [4]) and in assay [3] were 0.04 ± 0.003 µM and 8.63 ± 0.84 µM, respectively.

Take `CC1CCC2(C(=O)O)CCC3(C)C(=CCC4C5(C)CCC(=O)C(C)(C)C5CCC43C)C2C1C` (stereo not shown) [Compound 40]: the figures for the IC50 in assay [2] (setting [4]) and in assay [3] were 0.93 ± 0.18 µM and 6.94 ± 1.37 µM, respectively.

Consider `C[C@H]1[C@H](C)CC[C@]2(C)CC[C@]3(C)C(=CC[C@@H]4[C@@]5(C)CC[C@@H](O)[C@](C)(C(=O)O)[C@@H]5CC[C@]43C)[C@H]12` [Compound 8, β-Boswellic acid], for which the half-inhibitory concentration (IC50) is over 100 µM in assay [2] (setting [4]) and 0.42 ± 0.05 µM in assay [3].

Turning to `CC1CCC2(C(=O)O)CCC3(C)C(=CCC4C5(C)C=C(O)C(=O)C(C)(C)C5CCC43C)C2C1C` (stereo not shown) [Compound 43], the concentration for half-maximal inhibition (IC50) in assay [2] (setting [4]) was 0.032 ± 0.003 µM; in assay [3], 5.21 ± 1.24 µM.

`C[C@H]1[C@H](C)CC[C@]2(C(=O)O)CC[C@]3(C)C(=CC[C@@H]4[C@@]5(C)CC[C@H](O)C(C)(C)[C@@H]5CC[C@]43C)[C@H]12` [Compound 5, ursolic acid]: the concentration for half-maximal inhibition (IC50) in assay [2] (setting [4]) was 0.04 ± 0.004 µM; in assay [3], 6.16 ± 0.97 µM.

`O=[N+]([O-])c1ccc(OP(=O)(O)Oc2ccc([N+](=O)[O-])cc2)cc1` [Compound 29, Bis-p-nitrophenyl phosphate, reference compound]: the IC50 in assay [2] (setting [4]) is 0.36 ± 0.03 µM; in assay [3], over 100 µM.

As to `CC1(C)CCC2(C(=O)O)CCC3(C)C(=CCC4C5(C)CCC(OC(=O)CCC(=O)O)C(C)(C)C5CCC43C)C2C1` (stereo not shown) [Compound 33], the IC50 is 0.043 ± 0.003 µM in assay [2] (setting [4]) and 36.4 ± 5.17 µM in assay [3].

Consider `CC1CCC2(C(=O)O)CCC3(C)C(=CCC4C5(C)CCC(OC(=O)CCC(=O)O)C(C)(C)C5CCC43C)C2C1C` (stereo not shown) [Compound 42], for which the concentration for half-maximal inhibition (IC50) was found to be 0.028 ± 0.003 µM in assay [2] and 20.9 ± 1.78 µM in assay [3].

For `CC(=O)OC1CCC2(C)C(CCC3(C)C2CC=C2C4CC(C)(C)CCC4(C(N)=O)CCC23C)C1(C)C` (stereo not shown) [Compound 32], the IC50 in assay [2] (setting [4]) was determined as 0.11 ± 0.013 µM; in assay [3], 7.02 ± 0.59 µM.
